As a reminder, the IC50 is the midpoint of a concentration-inhibition curve. Usually viability, T/C stands for the ratio of treated to control.

In the experiment the test system is 192522-019-R-J2-PDC complex tumor spheroid viability. In words: Anticancer human tumor 192522-019-R-J2-PDC patient-derived colon adenocarcinoma cell line growth inhibition [POLQ]. The following applies: for viability, T/C: stronger effect = lower value. The method, then:
Multicellular complex tumor spheroid response to Polymerase (POL) inhibitors (novobiocin, ART-558, RP6685) in combination with a variety of drugs and investigational agents in selected tumor cell lines
The POL inhibitors (novobiocin, ART-558, and RP6685) were evaluated both individually and in combination with standard of care and investigational anticancer small molecules within a complex spheroid model of solid tumors. . Complex spheroids include a stromal component modeled by human endothelial cells (HUVEC) and fibroblasts modeled by human mesenchymal stem cells (MSCs). The concentration ranges selected for each drug and investigational agent were based upon clinically achievable concentrations if the clinical Cmax of the agent was known.
Compounds. The drugs and investigational agents: novobiocin (NSC847541), ART-558 (NSC835418), RP-6685 (NSC848927), peposertib (NSC802822), ceralasertib (NSC780249), elimusertib (NSC800525), camonsertib (NSC841442), AZD-1390 (NSC803789), olaparib (NSC753686), talazoparib (NSC767125), rucaparib (NSC756644), sotorasib (NSC818433), MRTX-1133 (NSC836407), SN-38 (NSC673596), topotecan (NSC609699), epotoside (NSC141540), doxorubicin (NSC123127), gemcitabine (NSC613327), 5-fluorouracil (NSC19893), paclitaxel (NSC125973), vemurafenib (NSC761431), MSA-2 (NSC828583), SN-011 (NSC837082), adavosertib (NSC754352), prexasertib (NSC758257), carboplatin (NSC241240) and oxaliplatin (NSC266046), were obtained from the National Cancer Institute (NCI) Developmental Therapeutics Program Chemical Repository (21). The FDA-approved anticancer drug set is available from the Developmental Therapeutics Program at https://dtp.cancer.gov/organization/dscb/obtaining/. […] The stock solutions were prepared in dimethyl sulfoxide (DMSO, Sigma-Aldrich, St. Louis, MO, cat. D2650), except for the platinum compounds which were prepared in saline (Quality Biological, Gaithersburg, MD, cat. 114-055-101), at 800-fold the tested concentration and stored at -70 degrees C prior to their use. All drugs and investigational agents were tested over a range starting from a high concentration at or near the clinical Cmax and decreasing in half-log increments. If the clinical Cmax for an agent had not been determined, the highest concentration tested was 10 microM, except for SN-38, which was tested at a high concentration of 1 microM.
Cell Culture. All cells were maintained in an incubator at 37 degrees C and 5% CO2 with 95% humidity. The PDC lines were cultured according to standard operating procedures established by the NCI PDMR (https://pdmr.cancer.gov). Table 3 of the manuscript, lists the cell lines along with the number of the three cell types plated to form the mct-spheroids and media for tumor cell growth. After thawing, all PDC lines, except 997537-175-T-J1-PDC and 415267-285-R-J2-PDC, were cultured in Matrigel-coated flasks prepared with a working solution of 1X Ham's F-12 nutrient mix, without supplementation (Thermo Fisher Scientific, cat. 11765054), 100 U/mL penicillin-streptomycin (Thermo Fisher Scientific, cat. 15140122), and 2.5% Matrigel (Corning Inc., Corning, NY, cat. 354248) for the first three passages. The two PDC lines 997537-175-T-J1-PDC and 415267-285-R-J2-PDC were cultured on uncoated flasks. The 857933-349-R-J2-PDC line was cultured in 6C/Colon 1B media containing advanced DMEM/F-12 (Thermo Fisher Scientific, cat. 12634028), 10 mM HEPES (Thermo Fisher Scientific, cat. 15630080), 1X GlutaMAX supplement (Thermo Fisher Scientific, cat. 35050061), 0.1 mg/mL primocin (InvivoGen, San Diego, CA, cat. ant-pm-2), 10% defined fetal bovine serum, heat inactivated (HyClone Laboratories Inc., Logan, UT, cat. SH30070.03HI), 50% L-WRN conditioned media (ATCC, cat. CRL-3276), 1.25 mM N-Acetyl-L-cysteine (Sigma-Aldrich, cat. A9165), 10 mM nicotinamide (Sigma-Aldrich, cat. N0636), 1X B-27 supplement (Thermo Fisher Scientific, cat. 17504044), 1X N-2 supplement (Thermo Fisher Scientific, cat. […]

[1] abbreviates: curve of first compound, second compound 0.0316 µM.
Setting [2] is: curve of first compound, second compound 0.1 µM.
Setting [3] is: curve of first compound, second compound 0.316 µM.
Where [4] appears, read: curve of first compound, second compound 1 µM.
Where [5] appears, read: curve of first compound, second compound 3.16 µM.
[6] abbreviates: curve of first compound, second compound 10 µM.
Setting [7] is: second compound 0.0316 µM, first compound 0.0316 µM.
Where [8] appears, read: second compound 0.0316 µM, first compound 0.1 µM.
Where [9] appears, read: second compound 0.0316 µM, first compound 0.316 µM.
Where [10] appears, read: second compound 0.0316 µM, first compound 1 µM.
Setting [11] is: second compound 0.0316 µM, first compound 3.16 µM.
Setting [12] is: second compound 0.0316 µM, first compound 10 µM.
Setting [13] is: second compound 0.1 µM, first compound 0.0316 µM.
[14] abbreviates: second compound 0.1 µM, first compound 0.1 µM.
The mark [15] stands for this setting: second compound 0.1 µM, first compound 0.316 µM.
The mark [16] stands for this setting: second compound 0.1 µM, first compound 1 µM.
The mark [17] stands for this setting: second compound 0.1 µM, first compound 3.16 µM.
The mark [18] stands for this setting: second compound 0.1 µM, first compound 10 µM.
[19] abbreviates: second compound 0.316 µM, first compound 0.0316 µM.
The mark [20] stands for this setting: second compound 0.316 µM, first compound 0.1 µM.
The mark [21] stands for this setting: second compound 0.316 µM, first compound 0.316 µM.
The mark [22] stands for this setting: second compound 0.316 µM, first compound 1 µM.
[23] abbreviates: second compound 0.316 µM, first compound 3.16 µM.
[24] abbreviates: second compound 0.316 µM, first compound 10 µM.
[25] abbreviates: second compound 1 µM, first compound 0.0316 µM.
[26] abbreviates: second compound 1 µM, first compound 0.1 µM.
Where [27] appears, read: second compound 1 µM, first compound 0.316 µM.
The mark [28] stands for this setting: second compound 1 µM, first compound 1 µM.
The mark [29] stands for this setting: second compound 1 µM, first compound 3.16 µM.
[30] abbreviates: second compound 1 µM, first compound 10 µM.
Setting [31] is: second compound 3.16 µM, first compound 0.0316 µM.
[32] abbreviates: second compound 3.16 µM, first compound 0.1 µM.
Where [33] appears, read: second compound 3.16 µM, first compound 0.316 µM.
[34] abbreviates: second compound 3.16 µM, first compound 1 µM.
The mark [35] stands for this setting: second compound 3.16 µM, first compound 3.16 µM.
Where [36] appears, read: second compound 3.16 µM, first compound 10 µM.
The mark [37] stands for this setting: second compound 10 µM, first compound 0.0316 µM.
[38] abbreviates: second compound 10 µM, first compound 0.1 µM.
The mark [39] stands for this setting: second compound 10 µM, first compound 0.316 µM.
[40] abbreviates: second compound 10 µM, first compound 1 µM.
Setting [41] is: second compound 10 µM, first compound 3.16 µM.
Setting [42] is: second compound 10 µM, first compound 10 µM.

Several values for one entry are separate records, joined by “and”; a condition that tells them apart may be missing. Equal values may be shown once.
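Further: spheroids exposed to drugs for seven days before reading.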
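Wherever viability, T/C is given: 100% = DMSO vehicle control viability in luminescence.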

`CC1COCCN1c1cc(-c2ccnn2C)c2ccnc(-c3ccn[nH]3)c2n1` (centres undefined) + Nc1ccc(C#CCN(C(=O)Cc2ncc(C(F)(F)F)cc2C(F)(F)F)c2ccc(F)cc2)nn1: the IC50 came to 592 nM under setting [1]; 444 nM under setting [2]; 508 nM under setting [3]; 651 nM under setting [4]; 570 nM under setting [5]; 895 nM under setting [6]. Further, the viability, T/C is 104% under setting [7]; 83.7% under setting [8]; 59.6% under setting [9]; 37% under setting [10]; 44% under setting [11]; 46.1% under setting [12]. The viability, T/C under setting [13] is 101%; the viability, T/C under setting [14] amounted to 86.1%; the viability, T/C under setting [15] amounted to 54.1%; the viability, T/C under setting [16] was 38.7%; the viability, T/C under setting [17] stood at 40.2%; the viability, T/C under setting [18] worked out at 46.2%. The viability, T/C under setting [19] is 96.8%; the viability, T/C under setting [20] worked out at 93.5%; the viability, T/C under setting [21] is 53.6%; the viability, T/C under setting [22] was determined as 35.5%; the viability, T/C under setting [23] stood at 45.6%; the viability, T/C under setting [24] came out at 54.2%. Moreover, the viability, T/C was 95.8% under setting [25]; 84.5% under setting [26]; 61.4% under setting [27]; 40.2% under setting [28]; 41.2% under setting [29]; 45% under setting [30]. Also, the viability, T/C was determined as 100% under setting [31]; 81.9% under setting [32]; 59.6% under setting [33]; 36.5% under setting [34]; 42% under setting [35]; 47.1% under setting [36]. The viability, T/C under setting [37] came to 97.8%; the viability, T/C under setting [38] was 85.9%; the viability, T/C under setting [39] came out at 63.9%; the viability, T/C under setting [40] worked out at 43.5%; the viability, T/C under setting [41] was 46.3%; the viability, T/C under setting [42] is 50.8%.

In the case of `Nc1ccn(C2OC(CO)C(O)C2(F)F)c(=O)n1` (centres undefined), the viability, T/C runs as follows: (compound 0.0316 µM) 100% and 102% and 104%; (compound 0.1 µM) 83.2% and 86.6% and 83.9%; (compound 0.316 µM) 72.9% and 76.2% and 66.8%; (compound 1 µM) 78.3% and 79.2% and 66%; (compound 3.16 µM) 71.9% and 82% and 62.9%; (compound 10 µM) 50.5% and 62.5% and 58.2%. The IC50 (curve of compound) was greater than 10000 nM.

Turning to `COc1cc(C2c3cc4c(cc3C(OC3OC5COC(C)OC5C(O)C3O)C3COC(=O)C23)OCO4)cc(OC)c1O` (centres undefined), the viability, T/C (compound 0.0316 µM) is 101% and 100% and 97.1%; the viability, T/C (compound 0.1 µM) is 96.5% and 97% and 97.3%; the viability, T/C (compound 1 µM) was 86.6% and 86% and 84.8%; the viability, T/C (compound 3.16 µM) was 59.9% (2×) and 65.3%; the viability, T/C (compound 10 µM) was 75.5% and 79.4% and 55.1%. In addition, the IC50 (curve of compound) is greater than 10000 nM.

For the compound `CNCc1ccc(-c2[nH]c3cc(F)cc4c3c2CCNC4=O)cc1` + Nc1ccc(C#CCN(C(=O)Cc2ncc(C(F)(F)F)cc2C(F)(F)F)c2ccc(F)cc2)nn1, the concentration for half-maximal inhibition (IC50) was greater than 10000 nM under setting [1]; greater than 10000 nM under setting [2]; greater than 10000 nM under setting [3]; greater than 10000 nM under setting [4]; greater than 10000 nM under setting [5]; greater than 10000 nM under setting [6]. The viability, T/C was 103% under setting [7]; 106% under setting [8]; 102% under setting [9]; 113% under setting [10]; 122% under setting [11]; 111% under setting [12]. The viability, T/C by setting is: under setting [13], 105%; under setting [14], 98.7%; under setting [15], 110%; under setting [16], 102%; under setting [17], 104%; under setting [18], 105%. In addition, the viability, T/C under setting [19] turned out to be 107%; the viability, T/C under setting [20] is 106%; the viability, T/C under setting [21] worked out at 96.5%; the viability, T/C under setting [22] came out at 103%; the viability, T/C under setting [23] is 106%; the viability, T/C under setting [24] is 107%. Also, the viability, T/C reads like this: under setting [25], 119%; under setting [26], 100%; under setting [27], 105%; under setting [28], 104%; under setting [29], 111%; under setting [30], 107%. For the same compound, the viability, T/C by setting is: under setting [31], 103%; under setting [32], 108%; under setting [33], 95.3%; under setting [34], 104%; under setting [35], 110%; under setting [36], 101%. Besides, the viability, T/C is, setting by setting: under setting [37], 108%; under setting [38], 101%; under setting [39], 105%; under setting [40], 102%; under setting [41], 110%; under setting [42], 106%.

As to `C=CCn1c(=O)c2cnc(Nc3ccc(N4CCN(C)CC4)cc3)nc2n1-c1cccc(C(C)(C)O)n1`, the viability, T/C by setting is: (compound 0.00316 µM) 101% and 105% and 108%; (compound 0.01 µM) 97.8% and 97.2% and 97%; (compound 0.0316 µM) 97.5% and 100% and 99.1%; (compound 0.1 µM) 102% (2×) and 106%; (compound 0.316 µM) 85.8% and 97% and 86.1%; (compound 1 µM) 24.8% and 36.2% and 38.5%. The IC50 (curve of compound) was 627 nM and 773 nM and 764 nM.

These data come from PubChem BioAssay AID1963850 (Molecular Pharmacology Branch, DTP, NCI, 2024).
